Reference: patent publication US20020142457A1, “Cell having the potentiality of differentiation into cardiomyocytes” (priority 1999, published 2002)

How the values were obtained:
KUM2 cells = test: Induction of spontaneously beating cardiomyocytes in KUM2 cells by 5-aza-C; assay type: cell-based, mouse; conditions: 5-aza-C 3 μM for 24 hours
Protocol: After culturing for about 4 months under the above conditions, immortalized cells were selected and diluted to establish 192 cell lines respectively derived from single cells (hereinafter referred to as bone marrow-derived first passage immortalized cell lines). To each of these clone-derived cell lines was added 5-aza-C at a final concentration of 3 μM, and the cells were cultured for 24 hours. After culturing for further 2 weeks in IMDM, clones that produced spontaneously beating cells were selected. […] One of three cell lines is KUM2. Hereinafter, unless otherwise indicated, the bone marrow cell KUM2 and mouse bone marrow-derived pluripotent stem cells (BMSC) described below were cultured in IMDM supplemented with 20% FCS, […] penicillin, 250 ng/ml streptomycin and […] amphotericin at 33° C. using a 5% CO2-incubator. When the KUM2 cells were exposed to 5-aza-C having a final concentration of 3 μM for 24 hours, nonspecific differentiation into spontaneously beating cardiomyocytes was induced. However, the frequency is very low (one or less per 10^7 cells).

[1] = test system: Nkx2.5/Csx and GATA4 co-forced expressing bone marrow cells (BMSC-Nkx2.5-GATA4); test: Differentiation of BMSC-Nkx2.5-GATA4 with cytokines, phase-contrast microscope; assay type: cell-based, mouse; conditions: BMSC-Nkx2.5-GATA4, 5-aza-C 3 μM in all dishes; cytokine 10 ng/ml; four weeks
Protocol: The Nkx2.5/Csx and GATA4 co-forced expressing bone marrow cells (BMSC-Nkx2.5-GATA4) having the potential to differentiate into cardiomyocytes were plated into a 60-mm culture dish at a density of 2×10^4 cells/ml and cultured at 33° C. in a 5% CO2-incubator.
On the next day, 5-aza-C was added to the culture medium to give a final concentration of 3 μM. Furthermore, 5 treatments differing from each other were carried out by adding FGF-8 to give a final concentration of 10 ng/ml (culture dish I); adding ET-1 to give a final concentration of 10 ng/ml (culture dish J); adding midkine to give a final concentration of 10 ng/ml (culture dish K); adding BMP4 to give a final concentration of 10 ng/ml (culture dish L); and adding nothing (culture dish M), followed by culturing.
On the next day, the medium was replaced with a fresh medium to eliminate 5-aza-C. Then, FGF-8 was added to the culture dish I to give a final concentration of 10 ng/ml; ET-1 was added to the culture dish J to give a final concentration of 10 ng/ml; midkine was added to the culture dish K to give a final concentration of 10 ng/ml; and BMP4 was added to the culture dish L to give a final concentration of 10 ng/ml, followed by culturing. Two and four days thereafter, furthermore, the medium was replaced, and the FGF-8, ET-1, midkine or BMP4 was added.
As a result, about 30% of the cells in the culture dish containing 5-aza-C alone were converted into myotubes, while about 50% of the cells in the culture dishes containing FGF-8, ET-1, midkine or BMP4 differentiated into myotubes respectively. On the other hand, the addition of FGF-8, ET-1, midkine or BMP4 caused no increase in beating cardiomyocytes.

[2] = test system: mouse bone marrow-derived pluripotent stem cells (BMSC); test: Differentiation of BMSC into myotubes, phase-contrast microscope; assay type: cell-based; conditions: 5-aza-C 3 μM in all dishes
Protocol: The mouse bone marrow-derived pluripotent stem cells (BMSC) having the potential to differentiate into cardiomyocytes were plated into 60-mm culture dishes and 60 mm fibronectin-coated dishes (Becton Dickinson) at a density of 2×10^4 cells/ml and cultured at 33° C. in a 5% CO2-incubator.
On the next day, 5-aza-C was added to each culture medium in a final concentration of 3 μM, followed by culturing with the following 3 different treatments, with addition of PDGF (culture dish A), both PDGF and retinoic acid (culture dish B) or without addition of any compound (culture dish C) (final concentration: PDGF, 10 ng/ml; retinoic acid, 10^−9 M).
On the next day, the medium was replaced with a fresh medium to remove 5-aza-C therefrom. Then, PDGF was added to the culture dish A until the final concentration of PDGF came to be 10 ng/ml, while PDGF and retinoic acid were added to the culture dish B until the final concentrations of PDGF and retinoic acid came to be 10 ng/ml and 10^−9 M, respectively. Two and four days thereafter, the medium was replaced and the PDGF or retinoic acid was further added.
As a result, about 30% of the cells in the culture dish containing 5-aza-C alone differentiated into myotubes, while about 40% of the cells in the culture dish containing PDGF and about 50% of the cells in the culture dish containing PDGF together with retinoic acid differentiated into myotubes. In the three groups of the fibronectin-coated dishes, the ratio of the cells differentiated into myotubes was about 10% higher than in the three groups of the culture dishes.
(§1) RNAs were collected from the myotubes thus obtained. And genes expressed in the myotubes were analyzed with quantitative PCR analysis using the synthetic oligonucleotides represented by SEQ ID NOS:71 to 78. As a result, PDGF or retinoic acid promoted the expression of MyoD and fTnI genes relating to a skeletal muscle but not cTnI or ANP specifically relating to a myocardium. Next, mouse bone marrow-derived pluripotent stem cells (BMSC) having the potential to differentiate into cardiomyocytes were inoculated in a 60-mm culture dish at a density of 2×10^4 cells/ml and cultured using an incubator at 33° C. under 5% of CO2.
On the next day, 5-aza-C was added to the liquid culture medium to give a final concentration of 3 μM. Furthermore, five treatments differing from each other were performed by adding FGF-8 to give a final concentration of 10 ng/ml (culture dish D); adding ET-1 to give a final concentration of 10 ng/ml (culture dish E); adding a midkine to give a final concentration of 10 ng/ml (Culture dish F); adding BMP4 to give a final concentration of 10 ng/ml (culture dish G); and adding no compound (culture dish H), followed by culturing.
On the next day, the medium was replaced by a fresh medium to eliminate 5-aza-C therefrom. Then, FGF-8 was added to the culture dish D to give a final concentration of 10 ng/ml; ET-1 was added to the culture dish E to give a final concentration of 10 ng/ml; the midkine was added to the culture dish F to give a final concentration of 10 ng/ml; and BMP4 was added to the culture dish G to give a final concentration of 10 ng/ml, followed by culturing. Two and four days thereafter, the medium was replaced and the FGF-8, ET-1, midkine or BMP4 was further added.
As a result, about 30% of the cells in the culture dish containing 5-aza-C alone differentiated into myotubes, while about 50% of the cells in the culture dishes containing FGF-8, ET-1, midkine or BMP4 differentiated into myotubes respectively.

[3] = test system: mouse bone marrow-derived pluripotent stem cells (BMSC); test: Induction of differentiation of BMSC into cardiomyocytes using DMSO; assay type: cell-based; conditions: then 6 weeks
Protocol: According to the method described in Example 1, mouse bone marrow-derived pluripotent stem cells (BMSC) having the potential to differentiate into cardiomyocytes were obtained and cultured for 24 hours in the presence of 10 μM DMSO instead of 3 μM 5-aza-C. The medium was replaced with IMDM, followed by culturing for 6 weeks.

Bone marrow cells (BMSC) = test: Induction of adipocytes from BMSC by PPAR-γ receptor agonists; assay type: cell-based, mouse
Protocol: Bone marrow cells (BMSC) having the potential to differentiate into cardiomyocytes can be induced to differentiate not only into cardiomyocytes but also into adipocytes. To control the differentiation into adipocytes, the conditions for the induction of the differentiation were examined. First, the expression of PPAR-y receptors was analyzed by the quantitative PCR method. […] Subsequently, PPAR-γ receptor agonists, pioglitazone and troglitazone, were added at various concentrations to bone marrow cells (BMSC) having the potential to differentiate into cardiomyocytes.

[4] = test system: mouse bone marrow-derived pluripotent stem cells (BMSC); test: Quantitative PCR of genes expressed in myotubes from BMSC; assay type: cell-based; conditions: with 5-aza-C 3 μM; for expression of cTnI or ANP specifically relating to a myocardium: PDGF 10 ng/ml, retinoic acid 10^−9 M
Protocol: as §1
RNAs were collected from the myotubes thus obtained. And genes expressed in the myotubes were analyzed with quantitative PCR using the synthetic oligonucleotides represented by SEQ ID NOS:71 to 78. As a result, the FGF-8, ET-1, midkine and BMP4 each individually promoted the expression of cTnI and ANP gene which are myocardium-specific genes.

[5] = culture dishes, PDGF 10 ng/ml, retinoic acid 10^−9 M, four weeks

Molecule | cells differentiated into myotubes [2, 5] | BMSCs differentiated into adipocytes (Bone marrow cells (BMSC); 0.4 μM) | BMSCs differentiated into adipocytes (Bone marrow cells (BMSC); 2 μM) | expression of MyoD and fTnI genes relating to a skeletal muscle [4] | expression of cTnI or ANP specifically relating to a myocardium [4] | further results
Nc1ncn([C@@H]2O[C@H](CO)[C@@H](O)[C@H]2O)c(=O)n1 [5-aza-C, 5-azacytidine, reference compound] | about 30% |  |  |  |  | frequency of differentiation into spontaneously beating cardiomyocytes (KUM2 cells): one or less; cells differentiated into myotubes [1]: about 30%; cells differentiated into myotubes ([2]; cytokine 10 ng/ml, four weeks after addition of 5-aza-C): about 30%
C[S+](C)[O-] [DMSO, dimethyl sulfoxide] |  |  |  |  |  | differentiation into beating cardiomyocytes ([3]; 10 μM DMSO for 24 hours instead of 5-aza-C): induced to differentiate into beating cardiomyocytes; expression of Nkx2.5/Csx and GATA4 genes in produced cells ([3]; 10 μM DMSO for 24 hours): expressed
CCc1ccc(CCOc2ccc(CC3SC(=O)NC3=O)cc2)nc1 (stereo not drawn) [pioglitazone] |  | about 50% | ~100% |  |  | 
CC1=C(/C=C/C(C)=C/C=C/C(C)=C/C(=O)O)C(C)(C)CCC1 [retinoic acid, all trans retinoic acid, reference compound] |  |  |  | promoted | not | 
Cc1c(C)c2c(c(C)c1O)CCC(C)(COc1ccc(CC3SC(=O)NC3=O)cc1)O2 (stereo not drawn) [troglitazone] |  | about 50% | ~100% |  |  | 
PDGF | about 40% |  |  | promoted | not | 
